Measurements: ChEMBL document CHEMBL1201862, “PubChem BioAssay data set” (2004)
Structures can show the parent of a compound that is named as a salt. Calls of active or inactive are those of the source.

Tests used:
Candida albicans [1] = assay: resistant Candida growth with fluconazole co-treatment – CaCi-8 strain, Alamar Blue, dry powder, set 3, dose response (AID 488905); format: functional, organism-based
Candida albicans [2] = assay: Candida growth inhibition combined with fluconazole – CaCi-2 strain, Alamar Blue, dry powder, set 3, dose response (AID 488907); format: functional, organism-based
[3] = target: Dual specificity tyrosine-phosphorylation-regulated kinase 1A (Rattus norvegicus, UniProt Q63470); format: biochemical, Homo sapiens
[4] = target: Dual specificity protein kinase CLK1 (Homo sapiens, UniProt P49759); assay: inhibition of human CLK1 activity – biochemical, cherry-picked samples, selectivity assay for Dyrk1A inhibitor project, dose response (AID 588811)
[5] = target: T1, Endoribonuclease toxin MazF (Escherichia coli K-12, UniProt P0AE70); assay: substrate-only fluorescence increase artefacts – biochemical, single-stranded RNase substrate, counter-screen for MazEF activator project, dose response (AID 588502); format: functional
[6] = blockers of HIV-1 envelope-mediated cell-cell fusion – cherry-pick, dose response (AID 652057); format: functional, cell-based
[7] = target: 5-hydroxytryptamine receptor 5A (Homo sapiens, UniProt P47898); assay: Counterscreen for agonists of OPRM1-OPRD1 heterodimerization: luminescence-based cell-based high throughput dose response assay to identify agonists of 5-hydroxytryptamine (serotonin) 5A receptor (HTR5A). [Related pubchem assays (depositor defined):AID504326, AID504355, AID504692, AID504904, AID504905]; format: functional
[8] = viability loss in CEM21 cells – cell-based, CellTiter-Glo luminescence, cherry-picked, cytotoxicity control for viral fusion inhibitor project, dose response (AID 652042); format: functional;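 note: potency for signal decrease meaning cytotoxicity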
Mu-type opioid receptor = Mu-type opioid receptor (Homo sapiens, UniProt P35372); assay: (§1) Counterscreen for agonists of heterodimerization of the mu 1 (OPRM1) and delta 1 (OPRD1) opioid receptors: Luminescence-based cell-based high throughput dose response assay to identify agonists of OPRM1 homodimerization.; format: functional
[9] = target: Delta-type opioid receptor (Homo sapiens, UniProt P41143); assay: as §1, with “of OPRD1” for “of OPRM1”, “homodimerization. [Related pubchem assays (depositor defined):AID504326, AID504355, AID504692, AID504904, AID504905]” for “homodimerization.”; format: functional
[10] = blockers of HIV-1 ZM109 envelope-driven cell-cell fusion – HeLa effector, CEM target cells, luciferase, cherry-pick, dose response (AID 652058); format: functional, cell-based;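 note: luciferase signal from HIV-1 Env mediated cell-cell fusion of effector and target cells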
[11] = target: T1, Endoribonuclease toxin MazF; assay: activation of MazEF endoribonuclease cleavage – biochemical, fluorescence, single-stranded RNA substrate, uHTS hits, dose response (AID 588481); format: functional
HEK293 [12] = assay: optical interference in Abeta FP readout, dose response, artefact control for IDE activator project, biochemical, fluorescence polarization (AID 588442); format: functional, cell-based; conditions: Homo sapiens
HEK293 [13] = assay: membrane integrity loss in HEK cells – cell-based, fluorescence, cytotoxicity control for IDE activator project, dose response (AID 588440); format: functional; conditions: Homo sapiens;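 note: cytotoxicity by LDH release measuring loss of membrane integrity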
Insulin-degrading enzyme [14] = target: T2, Insulin-degrading enzyme (Homo sapiens, UniProt P14735); assay: recombinant IDE activation, cell-free – biochemical, fluorescence polarization, counter-screen for IDE activator project, dose response (AID 588681)
Cytochrome P450 2C19 = Cytochrome P450 2C19 (Homo sapiens, UniProt P33261); assay: Cytochrome panel assay with activity outcomes. Panel member name: p450-cyp2c19 Compounds with AC50 equal or less than 10 uM are considered active; format: functional
Insulin-degrading enzyme [15] = target: T2, Insulin-degrading enzyme; assay: cellular IDE activation of Abeta substrate cleavage – fluorescence polarization, HEK cells, dose response (AID 588439); format: functional, cell-based
Beta-galactosidase = Beta-galactosidase (Escherichia coli, UniProt Q8VNN2); assay: PubChem AID 485352; format: functional
[16] = target: Type-1 angiotensin II receptor (Homo sapiens, UniProt P30556); assay: antagonism of angiotensin II type 1 receptor – cell-based, uHTS hits, selectivity assay for APJ receptor antagonist project, dose response (AID 463214); format: functional;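 note: antagonist potency against angiotensin II stimulated AT1 response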
Phospholipase D2 = Phospholipase D2 (Homo sapiens, UniProt O14939); assay: cellular phospholipase D2 inhibition IC50 – cell-based, dose response (AID 602147); format: functional;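 note: cellular assay in HEK293 cells overexpressing GFP-tagged PLD2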
Phospholipase D1 = Phospholipase D1 (Homo sapiens, UniProt Q13393); assay: cellular phospholipase D1 inhibition IC50 – cell-based, dose response (AID 602151); format: functional;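 note: cellular PLD1 assay in Calu-1 cells stimulated with PMA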
[17] = target: T3, Sentrin-specific protease 6 (Homo sapiens, UniProt Q9GZR1); assay: SAR Analysis of small molecule inhibitors of Sentrin-specific protease 6 (SENP6) using a Luminescent assay. [Related pubchem assays (depositor defined):AID2582, AID2599]; format: functional
T3 sequence (Q9GZR1 whole entry): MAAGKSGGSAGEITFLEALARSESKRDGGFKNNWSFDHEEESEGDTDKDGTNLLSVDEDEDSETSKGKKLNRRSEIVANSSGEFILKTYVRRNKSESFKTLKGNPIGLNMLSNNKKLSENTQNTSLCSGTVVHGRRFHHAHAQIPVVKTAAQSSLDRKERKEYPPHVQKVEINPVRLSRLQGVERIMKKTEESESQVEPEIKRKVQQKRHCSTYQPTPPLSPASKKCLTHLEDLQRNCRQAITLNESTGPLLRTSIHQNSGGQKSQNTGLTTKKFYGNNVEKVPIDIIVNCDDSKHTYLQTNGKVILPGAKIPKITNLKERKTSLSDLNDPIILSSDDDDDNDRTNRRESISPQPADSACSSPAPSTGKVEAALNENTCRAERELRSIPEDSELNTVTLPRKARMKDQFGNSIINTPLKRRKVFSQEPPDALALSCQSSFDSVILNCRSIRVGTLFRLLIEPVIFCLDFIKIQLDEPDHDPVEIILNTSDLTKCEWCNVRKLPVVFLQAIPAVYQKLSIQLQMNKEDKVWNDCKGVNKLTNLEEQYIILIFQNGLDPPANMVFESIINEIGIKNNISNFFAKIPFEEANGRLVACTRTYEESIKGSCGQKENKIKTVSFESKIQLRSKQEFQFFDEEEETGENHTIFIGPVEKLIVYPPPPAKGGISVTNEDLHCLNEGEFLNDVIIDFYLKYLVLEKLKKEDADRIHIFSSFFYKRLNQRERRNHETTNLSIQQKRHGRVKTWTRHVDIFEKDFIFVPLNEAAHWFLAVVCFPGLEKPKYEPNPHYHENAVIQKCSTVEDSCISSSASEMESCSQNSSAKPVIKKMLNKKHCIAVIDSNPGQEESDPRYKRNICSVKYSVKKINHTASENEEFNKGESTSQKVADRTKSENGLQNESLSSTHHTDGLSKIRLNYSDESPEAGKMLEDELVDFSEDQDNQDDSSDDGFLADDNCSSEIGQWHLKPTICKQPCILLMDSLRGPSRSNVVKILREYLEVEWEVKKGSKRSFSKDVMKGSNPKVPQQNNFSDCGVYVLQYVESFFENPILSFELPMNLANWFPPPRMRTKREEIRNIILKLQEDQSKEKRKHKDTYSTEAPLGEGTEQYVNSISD

[18] = target: T4, Sentrin-specific protease 8 (Homo sapiens, UniProt Q96LD8); assay: inhibition of human SENP8 cleavage activity – biochemical, luminescence, SAR follow-up (AID 504501); format: functional
T4 sequence (Q96LD8 whole entry): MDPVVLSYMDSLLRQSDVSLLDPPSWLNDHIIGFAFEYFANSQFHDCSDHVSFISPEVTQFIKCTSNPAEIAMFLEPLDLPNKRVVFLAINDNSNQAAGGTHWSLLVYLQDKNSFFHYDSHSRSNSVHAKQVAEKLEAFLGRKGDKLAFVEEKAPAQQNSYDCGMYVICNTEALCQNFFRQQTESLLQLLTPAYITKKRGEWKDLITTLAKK

[19] = target: T5, Sentrin-specific protease 7 (Homo sapiens, UniProt Q9BQF6); assay: inhibition of human SENP7 cleavage activity – biochemical, luminescence, SAR follow-up (AID 504497); format: functional
T5 sequence (Q9BQF6 whole entry): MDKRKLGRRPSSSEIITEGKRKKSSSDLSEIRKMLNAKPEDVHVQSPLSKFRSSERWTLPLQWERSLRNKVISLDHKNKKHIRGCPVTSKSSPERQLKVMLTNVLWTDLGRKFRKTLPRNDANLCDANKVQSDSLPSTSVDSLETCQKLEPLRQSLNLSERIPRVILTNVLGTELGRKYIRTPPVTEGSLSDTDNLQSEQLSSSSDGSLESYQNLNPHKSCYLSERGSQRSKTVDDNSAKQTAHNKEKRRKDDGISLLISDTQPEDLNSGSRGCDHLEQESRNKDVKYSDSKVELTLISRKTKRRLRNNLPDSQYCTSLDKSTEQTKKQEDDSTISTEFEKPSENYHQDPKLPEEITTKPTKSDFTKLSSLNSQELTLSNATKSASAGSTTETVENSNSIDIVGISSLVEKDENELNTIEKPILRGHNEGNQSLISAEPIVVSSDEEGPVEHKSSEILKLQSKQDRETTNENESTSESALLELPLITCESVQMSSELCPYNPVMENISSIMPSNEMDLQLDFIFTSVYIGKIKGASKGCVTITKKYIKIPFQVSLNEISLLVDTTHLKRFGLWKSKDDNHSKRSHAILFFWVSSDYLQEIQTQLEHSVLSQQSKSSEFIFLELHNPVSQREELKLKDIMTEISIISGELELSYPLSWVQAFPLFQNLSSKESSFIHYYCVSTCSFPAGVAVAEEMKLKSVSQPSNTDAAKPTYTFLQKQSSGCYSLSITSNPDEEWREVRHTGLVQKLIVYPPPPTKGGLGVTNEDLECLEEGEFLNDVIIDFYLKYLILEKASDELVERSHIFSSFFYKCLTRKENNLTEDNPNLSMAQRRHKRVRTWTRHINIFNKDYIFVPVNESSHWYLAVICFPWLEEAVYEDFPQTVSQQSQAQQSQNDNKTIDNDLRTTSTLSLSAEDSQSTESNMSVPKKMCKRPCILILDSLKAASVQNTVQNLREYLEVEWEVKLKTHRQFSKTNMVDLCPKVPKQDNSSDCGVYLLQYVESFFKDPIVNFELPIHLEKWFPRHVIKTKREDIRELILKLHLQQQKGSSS

Caspase-3 = target: T6, Caspase-3 (Homo sapiens, UniProt P42574); assay: SAR Analysis of small molecule inhibitors of Sentrin-specific proteases (SENPs) using a Caspase-3 Selectivity assay. [Related pubchem assays (depositor defined):AID2540, AID2599, AID434973, AID489001]; format: functional
T6 sequence (P42574 whole entry): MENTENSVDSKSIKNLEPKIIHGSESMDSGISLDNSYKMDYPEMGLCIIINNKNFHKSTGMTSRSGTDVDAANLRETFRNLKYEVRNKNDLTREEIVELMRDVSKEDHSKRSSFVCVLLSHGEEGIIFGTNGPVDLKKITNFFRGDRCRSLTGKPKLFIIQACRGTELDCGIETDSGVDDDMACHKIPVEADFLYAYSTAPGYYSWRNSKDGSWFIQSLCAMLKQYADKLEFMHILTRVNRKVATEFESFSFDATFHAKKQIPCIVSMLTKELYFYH

[20] = target: Voltage-gated inwardly rectifying potassium channel KCNH2 (Homo sapiens, UniProt Q12809); conditions: Potency;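 note: confirmatory quantitative high-throughput screen measuring inhibition of hERG channel activity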

T1 sequence (P0AE70 whole entry, the tested form may be a part): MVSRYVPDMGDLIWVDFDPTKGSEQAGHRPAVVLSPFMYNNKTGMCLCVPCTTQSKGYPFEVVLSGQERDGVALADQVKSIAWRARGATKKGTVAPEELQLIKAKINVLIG
T2 sequence (P14735 whole entry): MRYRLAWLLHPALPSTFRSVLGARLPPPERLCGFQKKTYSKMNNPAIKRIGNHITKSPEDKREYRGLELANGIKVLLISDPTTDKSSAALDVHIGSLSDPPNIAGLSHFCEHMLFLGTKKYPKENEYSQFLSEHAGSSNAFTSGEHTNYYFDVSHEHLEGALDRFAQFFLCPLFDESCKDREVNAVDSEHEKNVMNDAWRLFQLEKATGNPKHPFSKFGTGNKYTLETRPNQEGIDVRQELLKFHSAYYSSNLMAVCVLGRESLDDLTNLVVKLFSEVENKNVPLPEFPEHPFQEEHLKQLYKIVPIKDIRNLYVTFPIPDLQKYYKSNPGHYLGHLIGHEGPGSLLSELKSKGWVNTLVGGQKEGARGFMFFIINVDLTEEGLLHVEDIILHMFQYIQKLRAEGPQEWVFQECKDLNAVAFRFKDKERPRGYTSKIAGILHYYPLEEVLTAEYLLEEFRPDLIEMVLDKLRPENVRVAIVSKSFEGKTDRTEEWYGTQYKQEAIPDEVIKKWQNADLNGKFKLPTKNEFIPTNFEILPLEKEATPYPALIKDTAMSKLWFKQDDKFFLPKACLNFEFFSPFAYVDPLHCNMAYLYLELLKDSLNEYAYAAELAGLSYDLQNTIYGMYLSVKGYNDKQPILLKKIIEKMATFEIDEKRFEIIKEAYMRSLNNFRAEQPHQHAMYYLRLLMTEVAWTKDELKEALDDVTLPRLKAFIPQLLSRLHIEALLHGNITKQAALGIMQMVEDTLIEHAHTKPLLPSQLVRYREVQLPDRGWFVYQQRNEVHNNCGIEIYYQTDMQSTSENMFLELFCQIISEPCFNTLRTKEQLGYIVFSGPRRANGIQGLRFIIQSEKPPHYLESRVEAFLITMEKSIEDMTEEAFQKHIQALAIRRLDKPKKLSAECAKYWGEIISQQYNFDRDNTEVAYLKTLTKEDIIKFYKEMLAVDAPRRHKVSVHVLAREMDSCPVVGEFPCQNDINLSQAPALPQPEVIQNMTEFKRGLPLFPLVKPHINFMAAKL
Chain of Phospholipase D1 (Q13393 whole entry): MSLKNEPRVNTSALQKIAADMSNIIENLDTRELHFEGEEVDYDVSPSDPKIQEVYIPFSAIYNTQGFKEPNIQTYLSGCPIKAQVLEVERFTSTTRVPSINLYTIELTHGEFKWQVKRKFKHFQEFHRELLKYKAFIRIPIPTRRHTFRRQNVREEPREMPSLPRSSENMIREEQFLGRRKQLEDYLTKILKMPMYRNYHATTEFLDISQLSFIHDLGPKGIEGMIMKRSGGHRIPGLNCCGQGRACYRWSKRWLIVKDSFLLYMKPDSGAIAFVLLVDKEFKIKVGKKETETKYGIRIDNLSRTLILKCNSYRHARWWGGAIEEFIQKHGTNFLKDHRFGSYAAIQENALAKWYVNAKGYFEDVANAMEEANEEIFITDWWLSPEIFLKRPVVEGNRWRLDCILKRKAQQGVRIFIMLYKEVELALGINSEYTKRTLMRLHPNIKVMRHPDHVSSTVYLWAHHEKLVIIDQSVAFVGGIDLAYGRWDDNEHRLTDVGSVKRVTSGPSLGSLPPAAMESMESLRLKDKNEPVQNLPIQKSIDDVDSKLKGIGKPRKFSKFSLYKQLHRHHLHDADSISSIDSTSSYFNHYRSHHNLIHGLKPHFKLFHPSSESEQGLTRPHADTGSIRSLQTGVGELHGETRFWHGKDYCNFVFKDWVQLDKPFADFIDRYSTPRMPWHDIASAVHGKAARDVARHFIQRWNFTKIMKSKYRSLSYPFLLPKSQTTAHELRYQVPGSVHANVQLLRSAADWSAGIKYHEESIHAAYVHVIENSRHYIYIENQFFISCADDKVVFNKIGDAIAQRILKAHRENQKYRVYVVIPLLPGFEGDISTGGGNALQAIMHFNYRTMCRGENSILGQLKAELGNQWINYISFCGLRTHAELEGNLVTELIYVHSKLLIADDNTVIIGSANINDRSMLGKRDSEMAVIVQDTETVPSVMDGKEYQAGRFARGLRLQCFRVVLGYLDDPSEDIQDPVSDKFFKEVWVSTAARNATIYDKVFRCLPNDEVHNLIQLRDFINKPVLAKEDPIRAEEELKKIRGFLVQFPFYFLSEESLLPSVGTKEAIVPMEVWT
Chain of 5-hydroxytryptamine receptor 5A (P47898 whole entry, the tested form may be a part): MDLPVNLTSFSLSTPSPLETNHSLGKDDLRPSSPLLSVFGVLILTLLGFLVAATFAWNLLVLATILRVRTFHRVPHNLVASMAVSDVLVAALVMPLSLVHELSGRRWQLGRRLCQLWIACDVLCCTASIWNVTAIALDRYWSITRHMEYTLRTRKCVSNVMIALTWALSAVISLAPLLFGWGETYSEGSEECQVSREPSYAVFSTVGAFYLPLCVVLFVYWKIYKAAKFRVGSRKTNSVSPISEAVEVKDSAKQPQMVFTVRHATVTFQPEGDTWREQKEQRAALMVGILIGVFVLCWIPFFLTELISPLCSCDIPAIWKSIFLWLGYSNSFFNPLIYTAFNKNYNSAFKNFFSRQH
Chain of Delta-type opioid receptor (P41143 whole entry, the tested form may be a part): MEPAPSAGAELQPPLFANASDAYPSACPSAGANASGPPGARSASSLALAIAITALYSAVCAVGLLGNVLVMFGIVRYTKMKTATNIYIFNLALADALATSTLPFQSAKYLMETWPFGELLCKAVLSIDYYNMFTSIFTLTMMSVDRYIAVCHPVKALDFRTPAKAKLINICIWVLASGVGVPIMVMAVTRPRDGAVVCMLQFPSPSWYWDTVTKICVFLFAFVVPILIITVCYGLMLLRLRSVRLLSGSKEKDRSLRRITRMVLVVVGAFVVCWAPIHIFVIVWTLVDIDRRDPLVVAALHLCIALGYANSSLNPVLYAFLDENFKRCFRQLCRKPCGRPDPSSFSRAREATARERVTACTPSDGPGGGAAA
Chain of Mu-type opioid receptor (P35372 whole entry): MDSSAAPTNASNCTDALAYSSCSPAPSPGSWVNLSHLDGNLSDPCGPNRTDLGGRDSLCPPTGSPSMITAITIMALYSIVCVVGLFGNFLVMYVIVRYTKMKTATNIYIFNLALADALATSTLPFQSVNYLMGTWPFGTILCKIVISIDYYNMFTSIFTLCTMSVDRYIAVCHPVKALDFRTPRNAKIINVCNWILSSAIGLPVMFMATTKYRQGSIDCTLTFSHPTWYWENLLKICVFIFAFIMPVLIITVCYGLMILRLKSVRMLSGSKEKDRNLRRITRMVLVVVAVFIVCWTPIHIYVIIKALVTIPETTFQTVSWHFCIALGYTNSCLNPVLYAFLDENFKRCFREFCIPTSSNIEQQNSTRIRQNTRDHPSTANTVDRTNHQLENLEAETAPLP
Chain of Phospholipase D2 (O14939 whole entry): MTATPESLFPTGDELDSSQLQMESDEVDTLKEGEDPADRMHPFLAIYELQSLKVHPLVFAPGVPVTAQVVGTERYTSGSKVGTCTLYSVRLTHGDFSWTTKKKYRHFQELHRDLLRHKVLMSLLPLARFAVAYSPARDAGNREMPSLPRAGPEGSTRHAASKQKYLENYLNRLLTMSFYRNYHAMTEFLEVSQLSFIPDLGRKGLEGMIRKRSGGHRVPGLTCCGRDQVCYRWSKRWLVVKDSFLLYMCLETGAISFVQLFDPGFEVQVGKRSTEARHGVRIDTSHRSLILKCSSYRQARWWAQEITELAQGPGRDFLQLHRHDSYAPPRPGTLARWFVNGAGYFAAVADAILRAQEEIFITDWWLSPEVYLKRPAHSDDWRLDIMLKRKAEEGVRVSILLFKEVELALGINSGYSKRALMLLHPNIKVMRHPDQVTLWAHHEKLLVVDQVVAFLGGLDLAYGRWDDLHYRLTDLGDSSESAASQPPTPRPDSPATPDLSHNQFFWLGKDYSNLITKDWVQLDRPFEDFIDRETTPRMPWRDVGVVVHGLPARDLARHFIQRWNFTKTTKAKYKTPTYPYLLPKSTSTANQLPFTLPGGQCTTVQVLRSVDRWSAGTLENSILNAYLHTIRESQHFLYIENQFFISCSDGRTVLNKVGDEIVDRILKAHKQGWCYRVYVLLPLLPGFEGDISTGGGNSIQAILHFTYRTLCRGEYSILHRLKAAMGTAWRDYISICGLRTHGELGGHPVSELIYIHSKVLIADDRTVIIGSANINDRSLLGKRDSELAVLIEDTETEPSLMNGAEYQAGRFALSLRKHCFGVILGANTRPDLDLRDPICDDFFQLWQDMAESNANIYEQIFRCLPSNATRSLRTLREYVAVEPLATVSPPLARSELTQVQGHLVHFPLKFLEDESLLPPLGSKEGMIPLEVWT
Chain of Type-1 angiotensin II receptor (P30556 whole entry): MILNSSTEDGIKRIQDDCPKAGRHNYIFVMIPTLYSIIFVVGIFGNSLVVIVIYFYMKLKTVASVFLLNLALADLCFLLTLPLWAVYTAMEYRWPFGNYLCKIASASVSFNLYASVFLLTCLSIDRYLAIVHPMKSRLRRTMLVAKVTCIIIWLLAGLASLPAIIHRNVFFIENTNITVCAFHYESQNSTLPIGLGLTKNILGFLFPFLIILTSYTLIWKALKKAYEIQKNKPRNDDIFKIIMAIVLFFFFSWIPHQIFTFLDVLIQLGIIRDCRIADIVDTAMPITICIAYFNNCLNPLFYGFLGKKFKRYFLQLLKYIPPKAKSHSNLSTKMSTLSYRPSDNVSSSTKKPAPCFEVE

Q: For O=C(c1ccc(F)cc1)N1CCN(c2ccccn2)CC1, which AC50 (Candida albicans [1]) is on record?
A: 53.2 µM (active)

Q: And the AC50 (Candida albicans [2])?
A: 4.43 µM (active)

Q: Which AC50 [3] does the source give for COc1cc(C(=O)Nc2cccc(-c3nncn3C)c2)cc(OC)c1OC here?
A: 2.95 µM (active)

Q: What about the AC50 [4] of the same compound?
A: 21.6 µM (active)

Q: For Nc1nonc1C(=O)NCCNCc1c(OCc2ccccc2F)ccc2ccccc12, which EC50 [5] is on record?
A: > 99 µM (inactive)

Q: And the AC50 [6]?
A: 922 nM (active)

Q: And the EC50 [7]?
A: > 92.5 µM (inactive)

Q: What about the AC50 [8] of the same compound?
A: 52.6 µM (active)

Q: What about the EC50 (Mu-type opioid receptor) of the same compound?
A: > 92.5 µM (inactive)

Q: And the EC50 [9]?
A: 74.8 µM (inactive)

Q: What about the AC50 [10] of the same compound?
A: 14.1 µM (active)

Q: And the EC50 [11]?
A: > 99 µM (inactive)

Q: Which EC50 (HEK293 [12]) does the source give for O=C(/C=C/c1ccc(Cl)cc1)Nc1ccc(N2CCCCC2)cc1 here?
A: > 54.7 µM (inactive)

Q: What about the IC50 (HEK293 [13]) of the same compound?
A: > 89.2 µM (inactive)

Q: What about the EC50 (Insulin-degrading enzyme [14]) of the same compound?
A: > 54.7 µM (inactive)

Q: And the AC50 (Cytochrome P450 2C19)?
A: inconclusive

Q: And the EC50 (Insulin-degrading enzyme [15])?
A: > 54.7 µM (inactive)

Q: For O=C(CCl)NNc1cccc(Cl)n1, which EC50 (Beta-galactosidase) is on record?
A: > 40 µM (inactive)

Q: And the IC50 [16]?
A: 2.72 µM (active)

Q: Which IC50 (Phospholipase D2) does the source give for C[C@@H](CN1CCC2(CC1)C(=O)NCN2c1ccc(F)c(F)c1)NC(=O)c1cc2ccccc2[nH]1 here?
A: 34 nM (active)

Q: What about the IC50 (Phospholipase D1) of the same compound?
A: 3 nM (active)

Q: For C(=C\c1nc(-c2cc3ccccc3cn2)no1)/c1ccccc1, which IC50 [17] is on record?
A: > 99 µM (inactive)

Q: And the IC50 [18]?
A: > 99 µM (inactive)

Q: What about the IC50 [19] of the same compound?
A: > 99 µM (inactive)

Q: And the IC50 (Caspase-3)?
A: > 99 µM (inactive)

Q: For Cc1ccccc1/C=C/C1=NCCN1 [METRAZOLINE OXALATE], which AC50 [20] is on record?
A: 15.8 µM (inconclusive)
